# System: THP-1 viability, CellTiter-Glo luminescence, 72 h
# Experiment: PubChem AID 2252
row,Compound,EC50 [µM]
1,CCCCCc1ccc(OCCCC[n+]2cccc(C)c2)c(CCCCC)c1,1.05
2,CN1CCN(C2=Cc3cc(Cl)ccc3Sc3cc(F)ccc32)CC1,13.4
3,CCCCn1c(=N)n(CC(=O)c2ccc(Br)s2)c2ccccc21,5.43
4,O=c1c(O)cccc2cc(O)c(O)c(O)c12,24.2
5,CCc1ccc(NC(=O)C[n+]2cc(-c3ccc(C)cc3)n3c2CCC3)cc1,5.71
6,CN1CCN(C(c2ccc(Br)cc2)c2cc(Cl)c3cccnc3c2O)CC1 (stereo unspecified),2
7,COc1ccc(C(C(=O)Nc2ccc(C(C)C)cc2)N(Cc2ccco2)C(=O)CC2NC(=O)NC2=O)cc1 (stereo unspecified),31.9
8,Cc1ccc(-c2csc(NC(=O)C[n+]3cc(-c4ccc(C)cc4)n4c3CCC4)n2)cc1,8.33
9,O=C(N/N=C/c1ccc([N+](=O)[O-])s1)c1ccccc1Br,15.2
10,Cc1cc2oc(=O)cc(CN3CCN(C/C=C/c4ccccc4)CC3)c2cc1O,18.6
11,CCOC(=O)C1=C(c2ccccc2)NC(N)=NC1c1ccc(OCc2ccc(C(=O)OC)cc2)cc1 (stereo unspecified),7.56
12,S=C(Nc1ccc(Cl)c(Cl)c1)NC1CCN(Cc2ccccc2)CC1,10.7
13,NC(N)=Nc1nc(-c2ccccc2)c2cc(Cl)ccc2n1,3.77
14,COc1ccccc1C(=O)NNC1=C(C(=O)C(F)(F)F)CCC1,15.1
15,CC(=O)Nc1ccc(NC(=O)CSc2ccc(-c3ccco3)nn2)cc1,< 0.1
16,C#CCOCCOCCOCCNc1nc(N2CCN(C(=O)CCCCCCCCCCNC(=O)[C@H](CO)n3cc(CCCSC)nn3)CC2)nc(N2CCN(C(=O)CCCCCCCCCCNC(=O)[C@H](CCCN=C(N)N)n3cc(C[C@@H](C)CC)nn3)CC2)n1,9.01
17,CN1CCN(CC(=O)N2CCn3c4c(c5cc(C6CCCCC6)ccc53)CCCC42)CC1 (stereo unspecified),6.66
18,Oc1cccc2ccc(Nc3ccccn3)nc12,1.75
19,Cc1cc2nc(C3CCN(CC4COc5ccccc5O4)CC3)[nH]c2cc1C (stereo unspecified),26.8

row,Compound,EC50 [µM]
1,CN(C)CCNc1oc(COc2ccc(-c3ccccc3)cc2)nc1C#N,13.1
2,COc1ccc(Cc2nnc(N/N=C/c3ccc(O)cc3)[nH]c2=O)cc1OC,0.57
3,O=C(O)c1cn(C2CC2)c2cc(N3CCN(S(=O)(=O)c4ccc5c(c4)OCCO5)CC3)c(F)cc2c1=O,< 0.1
4,Oc1ccccc1N=Cc1c(O)ccc2oc3c(c12)CCCC3,45.8
5,O/N=C/C1=C(Cl)c2ccccc2CC1,< 0.1
6,Oc1ccccc1-c1cc(C(F)(F)C(F)F)[nH]n1,46.4
7,Cc1ccc2c(c1)c1c(n2CC(O)CNC2CCCCC2)CCCC1 (stereo unspecified),7.7
8,COc1cc(CNC2CCCC2)cc(Cl)c1OCc1ccccc1Cl,14.4
9,CN(C)CC/C=C1\c2ccccc2Sc2cc(F)c(Cl)cc21,10.8
10,Cc1cc([N+](=O)[O-])cc(/C=N/n2c(C)nc3ccccc3c2=O)c1O,28.2
11,CC(=O)NC(c1cccs1)c1cc([N+](=O)[O-])c2cccnc2c1O (stereo unspecified),10.5
12,O=C1c2c(O)ccc(O)c2C(=O)c2c(NCCNCCO)ccc(NCCNCCO)c21,< 0.1
13,O=C(N/N=C/c1c(O)ccc2ccccc12)c1ccc(CO)nc1,1.41
14,COc1cc([N+](=O)[O-])cc(/C=N/NC(=O)C(C)Nc2cccc(C)c2)c1O (stereo unspecified),27
15,CCN1CCCC1CNC(=O)C1CCN(Cc2nc(-c3cccc(Br)c3)oc2C)CC1 (stereo unspecified),12.4
16,O=C(NC(=S)NNC(=O)c1cccs1)c1ccco1,16.2
17,O=C(Nc1nc(-c2ccccn2)cs1)c1ccc(Br)s1,1.19
18,O=C(N/N=C/c1c[nH]c2ccccc12)c1cc2ccccc2o1,21.3
19,CC(C)NC(=O)CN1CCN(Cc2nc(C(c3ccccc3)c3ccccc3)no2)CC1,< 0.1

row,Compound,EC50 [µM]
1,NC1=NC[C@H](c2ccccc2)N1CCc1cc(C(F)(F)F)cc(C(F)(F)F)c1,3.81
2,Nn1cnnc1N/N=C\c1ccc(-c2ccccc2[N+](=O)[O-])o1,41.3
3,Cc1cc(=O)[nH]c(-n2nc(C)cc2C)n1,27.8
4,NC1=NC[C@@H](Cc2ccc(O)cc2)N1CCCCC1CCCCC1,6.98
5,CCOC(=O)N/N=C(/C)c1ccc([N+](=O)[O-])o1,34.2
6,CC1CCN(CCOCCOc2ccc(Br)cc2Cl)CC1,32.9
7,O=C(CCN1CCN(c2ccccc2F)CC1)c1ccc(Br)cc1,17
8,O=C1C(SCCO)=C(SCCO)C(=O)c2ccccc21,3.62
9,O=S1(=O)CC=C(CSc2nc3ccccc3[nH]2)C1,< 0.1
10,C/C(=N\NC(=O)c1ccc(Cl)cc1)c1ccccn1,0.97
11,Oc1c(I)cc(Cl)c2cccnc12,14.7
12,COc1ccc2c(C(=O)CCl)c[nH]c2c1,11.2
13,NC(N)=N/N=C/c1ccc(OCc2ccccc2Cl)cc1,3.15
14,CCc1cccc2c1Sc1ccccc1CC2N1CCNCC1 (stereo unspecified),9.72
15,CNCc1c(OCc2ccccc2F)ccc2ccccc12,15.2
16,O=C(NNc1nc2ccc(F)cc2s1)c1cccc(F)c1,8.07
17,CN1CCN(C2Cc3cc(F)ccc3Sc3ccc(Cl)cc32)CC1 (stereo unspecified),14.7
18,O=C(CCN1CCN(c2ccccc2)CC1)N/N=C/c1ccc([N+](=O)[O-])o1,43.9
